Experimental findings from patent publication US12077503B2, “Substituted cyclic amides and their use as herbicides” (FMC CORPORATION, priority 2015, dated 2024) are described below.

Read-outs that look alike come from different tables or passages of the source.

The subject of data set [1] is pigweed (Amaranthus retroflexus). Briefly: Test A preemergence. The data set is classed as in vivo. The note with it: Amaranthus retroflexus, pre-emergence, 240 h, read-out: Plant response rating, Pigweed; for pest or weed control at 500 g/ha: 500 g ai/ha; for pest or weed control at 125 g/ha: 125 g ai/ha.
For data set [2], the system named is barnyardgrass (Echinochloa crus-galli). The data set is described as follows: Test A preemergence. In kind it is in vivo. The note with it: Echinochloa crus-galli, pre-emergence, 240 h, read-out: Plant response rating, Barnyardgrass; for pest or weed control at 500 g/ha: 500 g ai/ha; for pest or weed control at 125 g/ha: 125 g ai/ha. A digest of the protocol:
(§1)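 Greenhouse, ~10 d after spray; visual injury vs untreated controls, 0 = no effect, 100 = complete control. Preemergence: directed soil spray over planted seeds. Postemergence: plants 2–10 cm, 1–2 leaf stage. Loam/sand blend. Compound in non-phytotoxic solvent with surfactant.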

Data set [3] deals with Kochia (Kochia scoparia). The data set is described as follows: Test A preemergence. In kind it is in vivo. The note with it: Bassia scoparia, pre-emergence, 240 h, read-out: Plant response rating, Kochia; for pest or weed control at 500 g/ha: 500 g ai/ha; for pest or weed control at 125 g/ha: 125 g ai/ha. In short, it runs like this: as §1
For data set [4], the system named is giant foxtail (Setaria faberii). Briefly: Test A preemergence. In kind it is in vivo. The note with it: Setaria faberi, pre-emergence, 240 h, read-out: Plant response rating, Foxtail, Giant; for pest or weed control at 500 g/ha: 500 g ai/ha; for pest or weed control at 125 g/ha: 125 g ai/ha. A digest of the protocol: as §1
Data set [5] relates to ryegrass, Italian (Italian ryegrass, Lolium multiflorum). Briefly: Test A preemergence. The data set is classed as in vivo. The note with it: Lolium multiflorum, pre-emergence, 240 h, read-out: Plant response rating, Ryegrass, Italian; for pest or weed control at 500 g/ha: 500 g ai/ha; for pest or weed control at 125 g/ha: 125 g ai/ha. A digest of the protocol: as §1
Data set [6] relates to ragweed (common ragweed, Ambrosia elatior). Briefly: Test A preemergence. The note with it: Ambrosia artemisiifolia, pre-emergence, 240 h, read-out: Plant response rating, Ragweed; for pest or weed control at 500 g/ha: 500 g ai/ha; for pest or weed control at 125 g/ha: 125 g ai/ha. The data set is classed as in vivo. In short, it runs like this: as §1
For data set [7], the system named is corn (Zea mays). Briefly: Test G Pre-Emergence Protocol. In kind it is in vivo. The following applies: Zea mays, pre-emergence, 312 h, evaluated after 13 days. In short, it runs like this: (§2)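 Test compound in 0.5% Tween 20 acetone/water (50:50) was applied at three rates (15.625, 62.5, 250 g/ha) to soil sown one day earlier. After 13 days plants were scored for injury, where 0 means unaffected and 100 means completely damaged.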

Data set [8] has as its system redroot pigweed (Amaranthus retroflexus). Briefly: Test G Pre-Emergence Protocol. The data set is classed as in vivo. The following applies: Amaranthus retroflexus, pre-emergence, 312 h, evaluated after 13 days. In short, it runs like this: as §2
Data set [9] concerns giant foxtail (Setaria faberi). The data set is described as follows: Test G Pre-Emergence Protocol. The data set is classed as in vivo. The note with it: Setaria faberi, pre-emergence, 312 h, evaluated after 13 days. A digest of the protocol: as §2
Data set [10] has as its system barnyardgrass (Echinochloa crus-galli). The data set is described as follows: Test G Pre-Emergence Protocol. In kind it is in vivo. The note with it: Echinochloa crus-galli, pre-emergence, 312 h, evaluated after 13 days. In short, it runs like this: as §2
Data set [11] concerns ivy-leaved morning glory (Ipomoea hederacea). Briefly: Test G Pre-Emergence Protocol. The following applies: Ipomoea, pre-emergence, 312 h, evaluated after 13 days. In kind it is in vivo. In short, it runs like this:
as §2

Data set [12] relates to velvetleaf (Abutilon theophrasti). The data set is described as follows: Test G Pre-Emergence Protocol. In kind it is in vivo. The note with it: Abutilon theophrasti, pre-emergence, 312 h, evaluated after 13 days. In short, it runs like this: as §2
Where [13] appears, read: preemergence, 0 to 100 scale (0 no effect, 100 complete control).
Where [14] appears, read: Preemergence, 0 to 100 scale (0 no effect, 100 complete control).
Setting [15] is: preemergence, visual rating after approx. 10 d, 0 to 100 scale where 0 is no effect and 100 is complete control.
[16] abbreviates: preemergence, 0 to 100 scale, 0 = no effect, 100 = complete control.

Consider `O=C1NC[C@H](c2cc(C(F)(F)F)ccn2)[C@H]1C(=O)Nc1cccc(F)c1F` (racemic) [Compound 1376], for which the melting point (usually the temperature, or range, at which the solid turns liquid) is 146 to 150 °C. Moreover, the pest or weed control at 500 g/ha in data set [1] (setting [13]) is 0%. The pest or weed control at 125 g/ha in data set [1] (setting [14]) came to 0%. Further, the pest or weed control at 500 g/ha in [2] (setting [13]) amounted to 100%. Moreover, the pest or weed control at 125 g/ha in [2] (setting [14]) was found to be 90%. Besides, the pest or weed control at 500 g/ha in [3] (setting [13]) is 0%. In data set [3] (setting [14]), the pest or weed control at 125 g/ha was 0%. In [4] (setting [13]), the pest or weed control at 500 g/ha came to 100%. For the same compound, the pest or weed control at 125 g/ha in data set [4] (setting [14]) amounted to 90%. Besides, the pest or weed control at 500 g/ha in data set [5] (setting [13]) was determined as 70%. In [5] (setting [14]), the pest or weed control at 125 g/ha is 20%. Also, the pest or weed control at 500 g/ha in [6] (setting [13]) is 0%. Moreover, in [6] (setting [14]), the pest or weed control at 125 g/ha was determined as 0%.
Consider `CN1C[C@@H](c2ccc(C(F)(F)F)cc2)[C@H](C(=O)Nc2ccc(C(F)(F)F)nc2Cl)C1=O` (racemic) [Compound 1542], for which the plant injury at 15.625 g/ha in data set [7] (15.625 g ai/ha, read-out: Corn damage rating (100=total damage to plant; 0=no damage to plant)) is 0%. In data set [7] (62.5 g ai/ha, 100=total damage to plant, 0=no damage to plant, read-out: plant damage rating, Corn), the plant injury at 62.5 g/ha was 0%. Further, the plant injury at 250 g/ha in data set [7] (250 g ai/ha, read-out: Corn damage rating (100=total damage to plant; 0=no damage to plant)) is 0%. The pest or weed control at 15.625 g/ha in [8] (15.625 g ai/ha, read-out: Pigweed, Redroot damage rating (100=total damage to plant; 0=no damage to plant)) came out at 0%; in [9] (15.625 g ai/ha, read-out: Foxtail, Giant damage rating (100=total damage to plant; 0=no damage to plant)) it was 0%; in data set [10] (15.625 g ai/ha, read-out: Barnyard grass damage rating (100=total damage to plant; 0=no damage to plant)) it was 0%; in [12] (15.625 g ai/ha, read-out: Velvetleaf damage rating (100=total damage to plant; 0=no damage to plant)), 0%. Also, the pest or weed control at 62.5 g/ha was determined as 0% in data set [8] (62.5 g ai/ha, 100=total damage to plant, 0=no damage to plant, read-out: plant damage rating, Pigweed, Redroot); 10% in data set [9] (62.5 g ai/ha, 100=total damage to plant, 0=no damage to plant, read-out: plant damage rating, Foxtail, Giant); 10% in data set [10] (62.5 g ai/ha, 100=total damage to plant, 0=no damage to plant, read-out: plant damage rating, Barnyardgrass); 0% in data set [11] (62.5 g ai/ha, 100=total damage to plant, 0=no damage to plant, read-out: plant damage rating, Morningglory, Ivy-leaved); 0% in [12] (62.5 g ai/ha, 100=total damage to plant, 0=no damage to plant, read-out: plant damage rating, Velvetleaf). Further, the pest or weed control at 250 g/ha in data set [8] (250 g ai/ha, read-out: Pigweed, Redroot damage rating (100=total damage to plant; 0=no damage to plant)) is 0%; in data set [9] (250 g ai/ha, read-out: Foxtail, Giant damage rating (100=total damage to plant; 0=no damage to plant)), 10%; in data set [10] (250 g ai/ha, read-out: Barnyardgrass damage rating (100=total damage to plant; 0=no damage to plant)), 10%; in [11] (250 g ai/ha, read-out: Morningglory, Ivy-leaved damage rating (100=total damage to plant; 0=no damage to plant)) it was 0%; in data set [12] (250 g ai/ha, read-out: Velvetleaf damage rating (100=total damage to plant; 0=no damage to plant)), 0%.
With `CN1C[C@H](c2cc(F)cc(F)c2)[C@@H](C(=O)NC2CCc3ccccc32)C1=O` (stereo partly drawn) [Compound 755], the melting point was in the range of 135 to 139 °C. For the same compound, the pest or weed control at 125 g/ha in data set [1] (setting [15]) is 0%. The pest or weed control at 500 g/ha in data set [1] (setting [16]) stood at 0%. Besides, in [2] (setting [15]), the pest or weed control at 125 g/ha turned out to be 0%. Also, in data set [2] (setting [16]), the pest or weed control at 500 g/ha stood at 0%. In addition, in data set [3] (setting [15]), the pest or weed control at 125 g/ha amounted to 0%. For the same compound, in [3] (setting [16]), the pest or weed control at 500 g/ha amounted to 0%. In data set [4] (setting [15]), the pest or weed control at 125 g/ha came to 0%. Also, the pest or weed control at 500 g/ha in data set [4] (setting [16]) stood at 0%. Moreover, the pest or weed control at 125 g/ha in data set [5] (setting [15]) is 0%. The pest or weed control at 500 g/ha in [5] (setting [16]) stood at 0%. In data set [6] (setting [15]), the pest or weed control at 125 g/ha is 0%. Further, the pest or weed control at 500 g/ha in data set [6] (setting [16]) amounted to 0%.
On to `N#Cc1ccc(NC(=O)C2C(=O)NCC2c2ccccc2)cc1` (stereo not drawn) [Compound 1355], for which the melting point lay in the range of 186 to 188 °C. For the same compound, in [1] (setting [13]), the pest or weed control at 500 g/ha was determined as 0%. Besides, the pest or weed control at 125 g/ha in data set [1] (setting [14]) was 0%. In addition, the pest or weed control at 500 g/ha in data set [2] (setting [13]) was 0%. Further, in data set [2] (setting [14]), the pest or weed control at 125 g/ha is 0%. The pest or weed control at 500 g/ha in data set [4] (setting [13]) came to 0%. Also, the pest or weed control at 125 g/ha in data set [4] (setting [14]) was found to be 0%.
Consider `O=C1NCC(c2ccccc2)C1C(=O)Nc1ccccc1` (stereo not drawn) [Compound 1358], for which the melting point lay in the range of 180 to 181 °C. Also, in data set [1] (setting [13]), the pest or weed control at 500 g/ha is 0%. Besides, the pest or weed control at 125 g/ha in data set [1] (setting [14]) amounted to 0%. In data set [2] (setting [13]), the pest or weed control at 500 g/ha amounted to 0%. Further, the pest or weed control at 125 g/ha in data set [2] (setting [14]) came out at 0%. For the same compound, in [4] (setting [13]), the pest or weed control at 500 g/ha was determined as 0%. For the same compound, the pest or weed control at 125 g/ha in data set [4] (setting [14]) came out at 0%.
